Experimental data: ChEMBL document CHEMBL1150741, “Polygodial, an antifungal potentiator” (1988)
In brackets after ≈: the same amount, converted by molar mass. Activity calls are given as the source filed them. The rule behind the calls is not given here. Starred links: 1 amine or outer side, 2 acyl side, 3 side chain; linkers in the order of their positions; H or OH if unused. Positions of bridges follow the written chain, without caps; N, C: chain ends. Non-standard residues stand in square brackets, D forms with d. Residues, ends and D or L forms follow the SMILES beside them. Chains are numbered I, II in the order given. Actinocin(9to1) = Cc1c2oc3c(C)ccc(C(=O)[*:1])c3nc-2c(C(=O)[*:2])c(N)c1=O; NMeV = CN[C@H](C(=O)O)C(C)C; Sar = CNCC(=O)O

Assays:
Wickerhamomyces anomalus [1] = assay: Antimicrobial activity against Hansenula anomala IFO 0136 after 2 days; assay type: functional; details: IFO 0136, 48 h
Staphylococcus aureus = assay: Antimicrobial activity against Staphylococcus aureus NCTC 8530 after 2 days; assay type: functional; details: NCTC 8530, 48 h
Bacillus subtilis = assay: Antimicrobial activity against Bacillus subtilis K-49 after 2 days; assay type: functional; details: K-49, 48 h
Micrococcus luteus = assay: Antimicrobial activity against Micrococcus lysodeikticus IFO 3333 after 2 days; assay type: functional; details: IFO 3333, 48 h
Escherichia coli = assay: Antimicrobial activity against Escherichia coli IFO 3545 after 2 days; assay type: functional; details: IFO 3545, 48 h
Proteus vulgaris = assay: Antimicrobial activity against Proteus vulgaris IAM 12003 after 2 days; assay type: functional; details: IAM 12003, 48 h
Pseudomonas aeruginosa = assay: Antimicrobial activity against Pseudomonas aeruginosa IAM 1007 after 2 days; assay type: functional; details: IAM 1007, 48 h
Saccharomyces cerevisiae [2] = assay: Antimicrobial activity against Saccharomyces cerevisiae IFO 0203 after 2 days; assay type: functional; details: IFO 0203, 48 h
[3] = tested on: Schizosaccharomyces pombe; assay: Antimicrobial activity against Schizosaccharomyces pombe IFO 0342 after 2 days; assay type: functional; details: IFO 0342, 48 h
Cyberlindnera jadinii [4] = assay: Antimicrobial activity against Candida utilis ATCC 42402 after 2 days; assay type: functional; details: for MIC: Williopsis jadinii, ATCC 42402, 48 h
Sclerotinia = assay: Antimicrobial activity against Sclerotinia libertiana SS after 2 days; assay type: functional; details: 48 h
Mucor mucedo = assay: Antimicrobial activity against Mucor mucedo IFO 7684 after 2 days; assay type: functional; details: IFO 7684, 48 h
[5] = tested on: Rhizopus microsporus var. chinensis; assay: Antimicrobial activity against Rhizopus chinensis IFO 4745 after 2 days; assay type: functional; details: IFO 4745, 48 h
Aspergillus niger = assay: Antimicrobial activity against Aspergillus niger ATCC 6275 after 2 days; assay type: functional; details: ATCC 6275, 48 h
Penicillium crustosum = assay: Antimicrobial activity against Penicillium crustosum Thom after 2 days; assay type: functional; details: 48 h
[6] = tested on: Schizosaccharomyces pombe; assay: Antifungal activity against Schizosaccharomyces pombe IFO 0342 in Henneberg medium at pH 7 after 2 days; assay type: functional; details: IFO 0342, 48 h
Cyberlindnera jadinii [7] = assay: Antifungal activity against Candida utilis ATCC 42402 in Malt Wort medium at pH 5 after 2 days; assay type: functional; details: Williopsis jadinii, ATCC 42402, 48 h
[8] = tested on: Schizosaccharomyces pombe; assay: Antifungal activity against Schizosaccharomyces pombe IFO 0342 in Malt Wort medium at pH 5 after 2 days; assay type: functional; details: IFO 0342, 48 h
Saccharomyces cerevisiae [9] = assay: Antifungal activity against Saccharomyces cerevisiae IFO 0203 in Henneberg medium at pH 5.2 after 2 days; assay type: functional; details: IFO 0203, 48 h
Cyberlindnera jadinii [10] = assay: Antifungal activity against Candida utilis ATCC 42402 in Henneberg medium at pH 5.2 after 2 days; assay type: functional; details: Williopsis jadinii, ATCC 42402, 48 h
[11] = tested on: Schizosaccharomyces pombe; assay: Antifungal activity against Schizosaccharomyces pombe IFO 0342 in Henneberg medium at pH 5.2 after 2 days; assay type: functional; details: IFO 0342, 48 h
Saccharomyces cerevisiae [12] = assay: Antifungal activity against Saccharomyces cerevisiae IFO 0203 in Henneberg medium at pH 7 after 2 days; assay type: functional; details: IFO 0203, 48 h
Cyberlindnera jadinii [13] = assay: Antifungal activity against Candida utilis ATCC 42402 in Henneberg medium at pH 7 after 2 days; assay type: functional; details: Williopsis jadinii, ATCC 42402, 48 h
Saccharomyces cerevisiae [14] = assay: Antifungal activity against Saccharomyces cerevisiae IFO 0203 in Henneberg medium at pH 3.1 after 2 days; assay type: functional; details: IFO 0203, 48 h
Cyberlindnera jadinii [15] = assay: Antifungal activity against Candida utilis ATCC 42402 in Henneberg medium at pH 3.1 after 2 days; assay type: functional; details: Williopsis jadinii, ATCC 42402, 48 h
[16] = tested on: Schizosaccharomyces pombe; assay: Antifungal activity against Schizosaccharomyces pombe IFO 0342 in Henneberg medium at pH 3.1 after 2 days; assay type: functional; details: IFO 0342, 48 h
Saccharomyces cerevisiae [17] = assay: Antifungal activity against Saccharomyces cerevisiae IFO 0203 assessed as leakage of cellular constituents at 1 to 10 ug/mL by folin reagent method; assay type: functional, organism-based
Saccharomyces cerevisiae [18] = assay: Antifungal activity against Saccharomyces cerevisiae IFO 0203 assessed as leakage of cellular constituents at 1 to 10 ug/mL by phenol-sulphuric acid reagent method; assay type: functional, organism-based
Saccharomyces cerevisiae [19] = assay: Antifungal activity against Saccharomyces cerevisiae IFO 0203 assessed as organelle disorganization at 50 ug/mL after 10 mins by microscopy; assay type: functional, organism-based
Saccharomyces cerevisiae [20] = assay: Antifungal activity against Saccharomyces cerevisiae IFO 0203 assessed as fetal loss of cellular constituents at 50 ug/mL after 10 mins by microscopy; assay type: functional, organism-based
Wickerhamomyces anomalus [21] = assay: Antifungal activity against Hansenula anomala IFO 0136 in Henneberg medium at pH 5.2 after 2 days; assay type: functional; details: IFO 0136, 48 h
Wickerhamomyces anomalus [22] = assay: Antifungal activity against Hansenula anomala IFO 0136 in Henneberg medium at pH 7 after 2 days; assay type: functional; details: IFO 0136, 48 h
Wickerhamomyces anomalus [23] = assay: Antifungal activity against Hansenula anomala IFO 0136 in Henneberg medium at pH 3.1 after 2 days; assay type: functional; details: IFO 0136, 48 h
Saccharomyces cerevisiae [24] = assay: Antifungal activity against Saccharomyces cerevisiae IFO 0203 in Malt Wort medium at pH 5 after 2 days; assay type: functional; details: IFO 0203, 48 h
Wickerhamomyces anomalus [25] = assay: Antifungal activity against Hansenula anomala IFO 0136 in Malt Wort medium at pH 5 after 2 days; assay type: functional; details: IFO 0136, 48 h

MIC (Wickerhamomyces anomalus [1]) [µg/mL]	MIC (Staphylococcus aureus) [µg/mL]	MIC (Bacillus subtilis) [µg/mL]	MIC (Micrococcus luteus) [µg/mL]	MIC (Escherichia coli) [µg/mL]	MIC (Proteus vulgaris) [µg/mL]	MIC (Pseudomonas aeruginosa) [µg/mL]	MIC (Saccharomyces cerevisiae [2]) [µg/mL]	MIC [3] [µg/mL]	MIC (Cyberlindnera jadinii [4]) [µg/mL]	MIC (Sclerotinia) [µg/mL]	MIC (Mucor mucedo) [µg/mL]	MIC [5] [µg/mL]	MIC (Aspergillus niger) [µg/mL]	MIC (Penicillium crustosum) [µg/mL]	Structure (SMILES)	also measured
12.5 (≈ 49.9 µM)	> 100	> 100	> 100	> 100	> 100	> 100	3.13 (≈ 12.5 µM)	12.5 (≈ 49.9 µM)	3.13 (≈ 12.5 µM)	3.13 (≈ 12.5 µM)	25 (≈ 99.9 µM)	100 (≈ 399 µM)	50 (≈ 200 µM)	50 (≈ 200 µM)	CC1(C)CCC[C@@]2(C)[C@H]1CC=C(C=O)[C@]2(O)C=O [WARBURGANAL]	
															Cc1c2oc3c(C)ccc(C(=O)N[C@@H]4C(=O)N[C@H](C(C)C)C(=O)N5CCC[C@H]5C(=O)N(C)CC(=O)N(C)[C@@H](C(C)C)C(=O)O[C@@H]4C)c3nc-2c(C(=O)N[C@@H]2C(=O)N[C@H](C(C)C)C(=O)N3CCC[C@H]3C(=O)N(C)CC(=O)N(C)[C@@H](C(C)C)C(=O)O[C@@H]2C)c(N)c1=O (I: T[dV]P[Sar][NMeV] / II: T[dV]P[Sar][NMeV]; ester I:1-I:C, II:1-II:C; linker I:N-II:N via Actinocin(9to1))	Activity (Cyberlindnera jadinii [4]): inactive
25 (≈ 101 µM)	> 100	> 100	> 100	> 100	> 100	> 100	1.56 (≈ 6.28 µM)	25 (≈ 101 µM)	3.13 (≈ 12.6 µM)	3.13 (≈ 12.6 µM)	25 (≈ 101 µM)	100 (≈ 403 µM)	50 (≈ 201 µM)	50 (≈ 201 µM)	C=C1[C@@H](C)CC[C@@]2(C)[C@H]1CC=C(C=O)[C@]2(O)C=O	
1.56 (≈ 6.66 µM)	> 100	> 100	> 100	> 100	> 100	> 100	0.78 (≈ 3.33 µM)	6.25 (≈ 26.7 µM)	1.56 (≈ 6.66 µM)	1.56 (≈ 6.66 µM)	6.25 (≈ 26.7 µM)	12.5 (≈ 53.3 µM)	25 (≈ 107 µM)	25 (≈ 107 µM)	CC1(C)CCC[C@]2(C)[C@@H](C=O)C(C=O)=CC[C@@H]12 [POLYGODIAL]	MIC [6]: > 25 µg/mL; MIC (Cyberlindnera jadinii [7]): 1.56 µg/mL (≈ 6.66 µM); MIC [8]: 6.25 µg/mL (≈ 26.7 µM); MIC (Saccharomyces cerevisiae [9]): 1.56 µg/mL (≈ 6.66 µM); MIC (Cyberlindnera jadinii [10]): 3.13 µg/mL (≈ 13.4 µM); MIC [11]: 25 µg/mL (≈ 107 µM); MIC (Saccharomyces cerevisiae [12]): > 25 µg/mL; MIC (Cyberlindnera jadinii [13]): > 25 µg/mL; MIC (Saccharomyces cerevisiae [14]): 0.2 µg/mL (≈ 0.853 µM); MIC (Cyberlindnera jadinii [15]): 0.78 µg/mL (≈ 3.33 µM); MIC [16]: 6.25 µg/mL (≈ 26.7 µM); Activity (Saccharomyces cerevisiae [17]): Active; Activity (Saccharomyces cerevisiae [18]): Active; Activity (Saccharomyces cerevisiae [19]): Active; Activity (Saccharomyces cerevisiae [20]): Active; MIC (Wickerhamomyces anomalus [21]): 6.25 µg/mL (≈ 26.7 µM); MIC (Wickerhamomyces anomalus [22]): > 25 µg/mL; MIC (Wickerhamomyces anomalus [23]): 1.56 µg/mL (≈ 6.66 µM); MIC (Saccharomyces cerevisiae [24]): 0.78 µg/mL (≈ 3.33 µM); MIC (Wickerhamomyces anomalus [25]): 1.56 µg/mL (≈ 6.66 µM)
